According to patent publication US20240158348A1, “HERBICIDAL CYCLIC AMIDES N-SUBSTITUTED WITH A HALOALKYLSULFONYLANILIDE GROUP” (FMC Corporation, priority 2021, published 2024):

Tests used:
Format in all cases: in vivo
[1] = system: foxtail, giant (giant foxtail, Setaria faberi); experiment: Test C postemergence, giant foxtail
[2] = system: galium (catchweed bedstraw, Galium aparine); experiment: Test C postemergence, galium
soybean (Glycine max) [3] = experiment: Test C postemergence, soybean; conditions: visual injury, 0 to 100 scale (0 no effect, 100 complete control)
[4] = system: oat, wild (wild oat, Avena fatua); experiment: Test C postemergence, wild oat
[5] = system: oat, wild (wild oat, Avena fatua); experiment: Test C preemergence, wild oat; conditions: 0 is no effect, 100 is complete control
In short: (§1)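 Herbicidal effect was estimated visually on a 0–100 scale 10 or 12 days after spraying. Formulation: non-phytotoxic solvent mixture with surfactant. Timing: directed soil spray after sowing, or postemergence on seedlings bearing one or two leaves.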

[6] = system: wheat (Triticum aestivum); experiment: Test C preemergence, wheat; conditions: 0 is no effect, 100 is complete control
[7] = system: foxtail, giant (giant foxtail, Setaria faberi); experiment: Test C preemergence, giant foxtail; conditions: 0 is no effect, 100 is complete control
In short: as §1

corn (Zea mays) [8] = experiment: Test C preemergence, corn; conditions: 0 is no effect, 100 is complete control
In short: (§2)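 Plants grown in a sand and loam soil blend received the formulated test chemicals either as a preemergence soil-directed spray or postemergence at 2 to 10 cm height. After 10 or 12 greenhouse days, injury was assessed visually, with 100 meaning complete control.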

[9] = system: ragweed (common ragweed, Ambrosia artemisiifolia); experiment: Test C postemergence, ragweed; conditions: visual injury, 0 to 100 scale (0 no effect, 100 complete control)
In short: as §1

[10] = system: pigweed, palmer (palmer amaranth, Amaranthus palmeri); experiment: Test C preemergence, palmer amaranth; conditions: 0 is no effect, 100 is complete control
In short: as §1

[11] = system: ragweed (common ragweed, Ambrosia artemisiifolia); experiment: Test C preemergence, ragweed; conditions: 0 is no effect, 100 is complete control
In short: as §2

[12] = system: blackgrass (Alopecurus myosuroides); experiment: Test C postemergence, blackgrass; conditions: 31 g ai/ha Postemergence; visual injury, 0 to 100 scale (0 no effect, 100 complete control)
In short: as §1

[13] = system: pigweed, palmer (palmer amaranth, Amaranthus palmeri); experiment: Test C postemergence, palmer amaranth; conditions: visual injury, 0 to 100 scale (0 no effect, 100 complete control)
In short: as §1

[14] = system: sedge, umbrella (small-flower umbrella sedge, Cyperus difformis); experiment: Test D flooded paddy test, umbrella sedge; set-up: key: 0 = no effect, 100 = complete control; conditions: 250 g ai/ha, Flood; applied to paddy water at 2-leaf stage; visual rating after 13 days; scale 0 (no effect) to 100 (complete control)
In short: (§3)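 Pots holding 2-leaf-stage plants were flooded 3 cm deep and dosed via the water, which stayed at that level. After 13 greenhouse days, injury was scored visually against untreated controls, 0 (none) to 100 (complete control); a dash marks no test result.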

[15] = system: wheat (Triticum aestivum); experiment: Test C postemergence, wheat; conditions: visual injury, 0 to 100 scale (0 no effect, 100 complete control)
In short: as §1

soybean (Glycine max) [16] = experiment: Test C preemergence, soybean; conditions: 0 is no effect, 100 is complete control
In short: as §1

kochia (Bassia scoparia) [17] = experiment: Test C preemergence, kochia; conditions: 0 is no effect, 100 is complete control
In short: as §1

[18] = system: blackgrass (Alopecurus myosuroides); experiment: Test C postemergence, blackgrass; conditions: 125 g ai/ha Postemergence; 0 is no effect, 100 is complete control
[19] = system: horseweed (Erigeron canadensis); experiment: Test C postemergence, horseweed
In short: as §1

[20] = system: goosegrass (Eleusine indica); experiment: Test C preemergence, goosegrass; conditions: 0 is no effect, 100 is complete control
In short: as §2

[21] = system: barnyardgrass (Echinochloa crusgalli); experiment: Test D flooded paddy test, barnyardgrass; set-up: key: 0 = no effect, 100 = complete control; conditions: 250 g ai/ha, Flood; applied to paddy water at 2-leaf stage; visual rating after 13 days; scale 0 (no effect) to 100 (complete control)
In short: as §3

kochia (Bassia scoparia) [22] = experiment: Test C postemergence, kochia
In short: as §1

[23] = system: blackgrass (Alopecurus myosuroides); experiment: Test C preemergence, blackgrass; conditions: 0 is no effect, 100 is complete control
In short: as §1

rice (Oryza sativa) = experiment: Test D flooded paddy test, rice; set-up: key: 0 = no effect, 100 = complete control; conditions: 250 g ai/ha, Flood; applied to paddy water at 2-leaf stage; visual rating after 13 days; scale 0 (no effect) to 100 (complete control)
In short: as §3

corn (Zea mays) [24] = experiment: Test C postemergence, corn
[25] = system: ryegrass, Italian (Italian ryegrass, Lolium multiflorum); experiment: Test C preemergence, Italian ryegrass; conditions: 0 is no effect, 100 is complete control
In short: as §1

[26] = system: ducksalad (Heteranthera limosa); experiment: Test D flooded paddy test, ducksalad; set-up: key: 0 = no effect, 100 = complete control; conditions: 250 g ai/ha, Flood; applied to paddy water at 2-leaf stage; visual rating after 13 days; scale 0 (no effect) to 100 (complete control)
In short: as §3

[27] = system: goosegrass (Eleusine indica); experiment: Test C postemergence, goosegrass
In short: as §1

[28] = system: ryegrass, Italian (Italian ryegrass, Lolium multiflorum); experiment: Test C postemergence, Italian ryegrass; conditions: visual injury, 0 to 100 scale (0 no effect, 100 complete control)
In short: as §1

[29] = 31 g ai/ha Postemergence, visual injury, 0 to 100 scale (0 no effect, 100 complete control)
[30] = 125 g ai/ha Postemergence, 0 is no effect, 100 is complete control

## Cc1c(NS(=O)(=O)C(F)(F)F)cc(N2CCCC(OC3CCC3)C2=O)c(C)c1F (stereo not shown) [Compound 36]
[1]; [29]
  Foxtail, Giant plant response rating: 10
[1]; [30]
  Plant response rating (0 to 100 scale), Foxtail, Giant: 30
[2]; [29]
  Galium plant response rating: 60
[2]; [30]
  Plant response rating (0 to 100 scale), Galium: 80
Soybean (Glycine max) [3]; 31 g ai/ha Postemergence
  Soybean plant response rating: 70
Soybean (Glycine max) [3]; 125 g ai/ha Postemergence
  Soybean plant response rating: 70
[4]; [29]
  Oat, Wild plant response rating: 30
[4]; [30]
  Plant response rating (0 to 100 scale), Oat, Wild: 30
[5]; 31 g ai/ha Preemergence
  Plant response rating (0 to 100 scale), Oat, Wild: 30
[5]; 125 g ai/ha Preemergence
  Plant response rating (0 to 100 scale), Oat, Wild: 90
[6]; 31 g ai/ha Preemergence
  Plant response rating (0 to 100 scale), Wheat: 40
[6]; 125 g ai/ha Preemergence
  Plant response rating (0 to 100 scale), Wheat: 100
[7]; 31 g ai/ha Preemergence
  Plant response rating (0 to 100 scale), Foxtail, Giant: 50
[7]; 125 g ai/ha Preemergence
  Plant response rating (0 to 100 scale), Foxtail, Giant: 100
Corn (Zea mays) [8]; 31 g ai/ha Preemergence
  Plant response rating (0 to 100 scale), Corn: 30
Corn (Zea mays) [8]; 125 g ai/ha Preemergence
  Plant response rating (0 to 100 scale), Corn: 90
[9]; 31 g ai/ha Postemergence
  Ragweed plant response rating: 40
[9]; 125 g ai/ha Postemergence
  Ragweed plant response rating: 90
[10]; 31 g ai/ha Preemergence
  Plant response rating (0 to 100 scale), Pigweed, Palmer: 90
[10]; 125 g ai/ha Preemergence
  Plant response rating (0 to 100 scale), Pigweed, Palmer: 100
[11]; 31 g ai/ha Preemergence
  Plant response rating (0 to 100 scale), Ragweed: 70
[11]; 125 g ai/ha Preemergence
  Plant response rating (0 to 100 scale), Ragweed: 90
[12]
  Blackgrass plant response rating: 20
[13]; 31 g ai/ha Postemergence
  Pigweed, Palmer plant response rating: 30
[13]; 125 g ai/ha Postemergence
  Pigweed, Palmer plant response rating: 70
[14]
  Plant response rating, Sedge, Umbrella: 95
[15]; 31 g ai/ha Postemergence
  Wheat plant response rating: 60
[15]; 125 g ai/ha Postemergence
  Wheat plant response rating: 60
Soybean (Glycine max) [16]; 31 g ai/ha Preemergence
  Plant response rating (0 to 100 scale), Soybean: 90
Soybean (Glycine max) [16]; 125 g ai/ha Preemergence
  Plant response rating (0 to 100 scale), Soybean: 90
Kochia (Bassia scoparia) [17]; 31 g ai/ha Preemergence
  Plant response rating (0 to 100 scale), Kochia: 20
Kochia (Bassia scoparia) [17]; 125 g ai/ha Preemergence
  Plant response rating (0 to 100 scale), Kochia: 90
[18]
  Plant response rating (0 to 100 scale), Blackgrass: 30
[19]; [29]
  Horseweed plant response rating: 40
[19]; [30]
  Plant response rating (0 to 100 scale), Horseweed: 70
[20]; 31 g ai/ha Preemergence
  Plant response rating (0 to 100 scale), Goosegrass: 90
[20]; 125 g ai/ha Preemergence
  Plant response rating (0 to 100 scale), Goosegrass: 100
[21]
  Plant response rating, Barnyardgrass: 0
Kochia (Bassia scoparia) [22]; [29]
  Kochia plant response rating: 40
Kochia (Bassia scoparia) [22]; [30]
  Plant response rating (0 to 100 scale), Kochia: 80
[23]; 31 g ai/ha Preemergence
  Plant response rating (0 to 100 scale), Blackgrass: 80
[23]; 125 g ai/ha Preemergence
  Plant response rating (0 to 100 scale), Blackgrass: 100
Rice (Oryza sativa)
  Plant response rating, Rice: 0
Corn (Zea mays) [24]; [29]
  Corn plant response rating: 0
Corn (Zea mays) [24]; [30]
  Plant response rating (0 to 100 scale), Corn: 20
[25]; 31 g ai/ha Preemergence
  Plant response rating (0 to 100 scale), Ryegrass, Italian: 100
[25]; 125 g ai/ha Preemergence
  Plant response rating (0 to 100 scale), Ryegrass, Italian: 100
[26]
  Plant response rating, Ducksalad: 65
[27]; [29]
  Goosegrass plant response rating: 30
[27]; [30]
  Plant response rating (0 to 100 scale), Goosegrass: 90
[28]; 31 g ai/ha Postemergence
  Ryegrass, Italian plant response rating: 0
[28]; 125 g ai/ha Postemergence
  Ryegrass, Italian plant response rating: 40
